The structures appear in SMILES notation.

Series [1] can be described thus: Crystal agglomerate particle sizing by laser diffraction (Malvern dry dispersion). In kind it is physicochemical. As to the method:
This was carried out by laser diffraction using a Malvern 2000 dry disperser. The settings used for sizing are set out below: [table] Sample preparation—Triplicate Invert sample jar or vial 10 times. Weigh approximately 2 g of sample and transfer to the sample tray. Evenly disperse sample in sample tray.

A short description of series [2]: BCS classification and solubility of drug substance. The format is physicochemical. The conditions noted are these: across physiologically relevant pH. From the text:
Ridinilazole is a BCS class IV, orally administered and locally acting (lower intestines) GI antibiotic with minimal systemic exposure and very low solubility across physiologically relevant pH. BCS class IV drugs are known to present particular formulation challenges, especially in the case of oral formulations (see e.g. Ghadi and Dand (2017) BCS class IV drugs: Highly notorious candidates for formulation development Journal of Controlled Release, 248: 71-95).

The subject of series [3] is Clostridioides difficile infection (CDI). The following applies: Phase 2 trial, CDI recurrence; cited from earlier work.
A short description of series [4]: XRPD limit test for crystal form conversion (Forms D and N) in packaged tablet. In kind it is physicochemical. The conditions noted are these: proposed storage condition, proposed commercial packaging. From the text: The stability of the ridinilazole crystal form within the tablet as packaged in the intended commercial packaging configurations. Assessments have been made using a validated discriminatory X-ray powder diffraction (XRPD) method developed as a limit test for detecting Forms D and N within the drug product.

[5] abbreviates: Table 5, input drug substance at limits of specification, listed as 4.
[6] abbreviates: Table 6, micronized ridinilazole tetrahydrate, additional studies, listed as 4.
[7] abbreviates: Table 5, input drug substance at limits of specification, listed as 3.
Where [8] appears, read: Table 6, micronized ridinilazole tetrahydrate, additional studies, listed as 3.
[9] abbreviates: Table 6, micronized ridinilazole tetrahydrate, additional studies, listed as 5.
Where [10] appears, read: Table 5, input drug substance at limits of specification, listed as 2.
Where [11] appears, read: Table 6, micronized ridinilazole tetrahydrate, additional studies, listed as 2.
The mark [12] stands for this setting: Table 5, input drug substance at limits of specification, listed as 1.
The mark [13] stands for this setting: Table 6, micronized ridinilazole tetrahydrate, additional studies, listed as 1.

For `O.O.O.O.c1cc(-c2nc3ccc(-c4ccc5nc(-c6ccncc6)[nH]c5c4)cc3[nH]2)ccn1` [Batch 4, ridinilazole tetrahydrate], in series [1] (setting [5]), the D10 came to 1 μm, the D50 was 3 μm and the D90 was determined as 10 μm. Also, in series [1] (setting [6]), the D10 is 1.5 μm, the D50 is 6 μm and the D90 was found to be 13 μm.

Take `O.O.O.O.c1cc(-c2nc3ccc(-c4ccc5nc(-c6ccncc6)[nH]c5c4)cc3[nH]2)ccn1` [Batch 3, ridinilazole tetrahydrate]: in series [1] (setting [7]), the D10 came to 1 μm, the D50 was 5 μm and the D90 came to 11 μm. In series [1] (setting [8]), this molecule came in with a D10 of 1.7 μm, a D50 of 7 μm and a D90 of 14 μm.

With `O.O.O.O.c1cc(-c2nc3ccc(-c4ccc5nc(-c6ccncc6)[nH]c5c4)cc3[nH]2)ccn1` [Batch 5, ridinilazole tetrahydrate], in series [1] (setting [9]), the D10 amounted to 2.0 μm, the D50 amounted to 7 μm and the D90 was 14 μm.

Take `c1cc(-c2nc3ccc(-c4ccc5nc(-c6ccncc6)[nH]c5c4)cc3[nH]2)ccn1` [ridinilazole, 2,2′-di(pyridin-4-yl)-1H,1′H-5,5′-bibenzo[d]imidazole]: the solubility result in series [2] was “very low”. The “rates of recurrent disease” value in series [3] is 14.3%.

Consider `c1cc(-c2nc3cc(-c4ccc5[nH]c(-c6ccncc6)nc5c4)ccc3[nH]2)ccn1` [Form A, ridinilazole tetrahydrate], for which the “crystal form conversion within the tablet” value in series [4] is reported as “No form conversion is detected”.

As for `O.O.O.O.c1cc(-c2nc3ccc(-c4ccc5nc(-c6ccncc6)[nH]c5c4)cc3[nH]2)ccn1` [Batch 2, ridinilazole tetrahydrate], in series [1] (setting [10]), the D10 is listed as 1 μm, the D50 was found to be 5 μm and the D90 amounted to 11 μm. In series [1] (setting [11]), this molecule had a D10 of 1.1 μm, a D50 of 5 μm and a D90 of 11 μm.

Regarding `O.O.O.O.c1cc(-c2nc3ccc(-c4ccc5nc(-c6ccncc6)[nH]c5c4)cc3[nH]2)ccn1` [Batch 1, ridinilazole tetrahydrate], in series [1] (setting [12]), the D10 turned out to be 2 μm, the D50 is given as 7 μm and the D90 is 20 μm. In series [1] (setting [13]), the D10 was 1.5 μm, the D50 is 6 μm and the D90 is reported as 14 μm.

On to `CN[C@H](CC(C)C)C(=O)N[C@H]1C(=O)N[C@@H](CC(N)=O)C(=O)N[C@H]2C(=O)N[C@H]3C(=O)N[C@H](C(=O)N[C@H](C(=O)O)c4cc(O)cc(O)c4-c4cc3ccc4O)[C@H](O)c3ccc(c(Cl)c3)Oc3cc2cc(c3O[C@@H]2O[C@H](CO)[C@@H](O)[C@H](O)[C@H]2O[C@H]2C[C@](C)(N)[C@H](O)[C@H](C)O2)Oc2ccc(cc2Cl)[C@H]1O` [vancomycin, reference compound], for which the “rates of recurrent disease” value in series [3] is given as 34.8%.

Values taken from US12318487B2, “Solid tablet dosage form of ridinilazole” (c/o Summit (Oxford) Limited, priority 2021, dated 2025).
